Patent publication US9834514B2, “Antibiotic sensitivity-restoring and photosensitive agents” (New Mexico Tech Research Foundation, priority 2015, dated 2017)

Experiments:
P. aeruginosa = experiment: MIC against P. aeruginosa; format: cell-based; details: Pseudomonas aeruginosa, read-out: MIC
Text: Only compound 1 was able to decrease the CFU/mL when used in conjunction with white light to treat P. aeruginosa.

[1] = test system: A. baumannii (ATCC 15151); experiment: Time course of colony counts with compounds and PME or PMB; format: cell-based; details: 0.2 μg/mL of PME, compound 5 μM; FIGS. 50, 52
Protocol: The MICs of PME and compounds 8-11 were determined against A. baumannii (ATCC 15151). […] After incubating the cells with PME, a compound (5 μM) was added, and the samples were further incubated at 37° C. At specific time points, samples were taken and diluted ten-fold in media. Ten microliters of each dilution was then drip-streaked onto an agar plate and incubated overnight at 37° C. Colony counts were then performed, and the CFU/mL were calculated.

drug-resistant bacteria = experiment: Summary of synergistic activities with antibiotic families (TABLE 45); format: cell-based
Text: TABLE 45 summarizes the synergistic activities of the seven classes of clinically used antibiotics and compounds of the invention against a variety of different drug-resistant bacteria.

[2] = test system: Klebsiella pneumoniae (CRE, ATCC BAA-1705); experiment: MIC against CRE; format: cell-based; details: Klebsiella pneumoniae, ATCCBAA1705
Protocol: TABLE 27 details the individual MIC values of compounds 1, 7, 8, 9, 10, 11, PMB, PME, and light against CRE.
The MICs of PME and compounds 8-11 were determined against Klebsiella pneumoniae (CRE, ATCC BAA-1705). […] After the incubation with PME, the compounds were added at a concentration of 20 μM, and the samples were further incubated. At specific time points, the samples were taken and diluted ten-fold in media. Ten microliters of each dilution was then drip-streaked onto an agar plate and incubated overnight at 37° C. Colony counts were then performed and the CFU/mL were calculated.

WI38 cells = experiment: Toxicity (IC50) on WI38 cells; format: cell-based; details: Homo sapiens, WI-38; normal lung fibroblast WI38 cells
Protocol: The toxicities of the compounds of the invention were determined for human cancerous cervical epithelium HeLa and normal lung fibroblast WI38 cells. The toxicities of EPIs INF-55 and INF-55Cl were quantified as controls. […] TABLE 2 compares the toxicity of compounds 7-11 on HeLa cells and normal WI38 cells.

S. aureus (ATCC 29213) = experiment: microbe, parasite or virus in culture; format: cell-based
Protocol: Each mixture was incubated at 37° C. on a rotary shaking incubator for about 16 hours. MTT was then added to assess the viability of the cells (at 10% well volume). […] The cells were then streaked onto a TSA plate and incubated overnight at 37° C. These steps were repeated to reach a total of 30 exposures.

A. baumannii = experiment: Resensitization to antibiotics (log reduction, TABLE 29); format: cell-based; details: compound 5 μM
VRE = experiment: as above; format: cell-based, Enterococcus faecalis; details: compound 1 μM; Light (2 min)
[3] = test system: MRSA (ATCC No. BAA-44; ATCC No. BAA-1717); experiment: Light-activated killing (photodynamic therapy), colony counts; format: cell-based, S. aureus; details: for Dark Toxicity: no light; for Light Toxicity: white light 2 minutes; for log reduction in the concentration of CFUs: MRSA, FIG. 7
Protocol: Bacterial media was inoculated with bacteria and incubated overnight. The bacterial cultures were diluted to 5×10^8 CFU/mL using a McFarland latex turbidity standard (0.5). Compound 1 was diluted with sterile DMSO, which was added to the cell suspension in a glass culture tube. The cells were then incubated for 30 minutes at 37° C. on a rotary shaking incubator at 150 rpm. 500 μL of the treated cell suspension was added to a well on a sterile ceramic drop plate. Non-coherent white light from a Lumacare™ LC-122 unit was used to irradiate the samples. The end of the light probe was placed 3 cm above the sample well, perpendicular to the surface of the sample, and light was applied for 2 minutes (15 seconds light, 15 seconds dark). 200 μL of the irradiated sample was transferred to a 96-well plastic microtiter plate, and five ten-fold dilutions were made in the media. 10 μL of each dilution was dripped onto an agar media plate and streaked down the plate by tilting the plate down. The agar plates were incubated at 37° C. overnight, and colony counts were performed to calculate the CFU/mL.
Dose-dependent effects of treating bacteria with compound 1 and irradiation with white light were assessed by treating 10^8 CFU/mL of cells with compound 1, followed by irradiation with white light for 2 minutes. Compound 1 was added at a specific concentration to 1 mL of a 10^8 CFU/mL suspension of the respective bacterial cells, and the cells were incubated at 37° C. for approximately 45 minutes on a rotary shaker at 150 rpm. 0.5 mL of the cell suspension was removed and placed into the wells of a sterile ceramic drop plate, and then the cells were irradiated with white light from a Lumacare™ LC 122A light source for 2 minutes at a distance of approximately 3 cm. The time and distance of the light application delivered about 85 J/cm^2 of 400-700 nm light to the sample. After being irradiated, ten-fold dilutions were made of each cell sample. The dilutions were drip-streaked onto a tryptic soy agar (TSA) plate and incubated at 37° C. for 18-24 hours. Enumeration of bacteria was determined from the dilution, which produced a drip-streak containing approximately 30-300 colonies. After counting the colonies, the CFU/mL was calculated by applying the respective dilution factor and a factor of 100 to account for the 10 μL of sample taken. Appropriate controls were prepared, including cells with no treatment, cells with only compound 1 added, and cells only treated with light.

In the case of `Clc1ccc(Oc2c(-c3ccc(Cl)cc3)[nH]c3ccc(Cl)cc23)cc1` [Compound 11], the MIC (P. aeruginosa) is reported as greater than 100 µM, the “A. baumannii colony populations on treatment with compound and PME” value [1] is reported as “reduced to sterility” and the “Synergy with Polymyxin B (Polypeptides)” value (drug-resistant bacteria; A. baumannii ATCC 15151) is reported as “Synergy”. For the same compound, the “Synergy with Polymyxin E (Polypeptides)” value (drug-resistant bacteria; A. baumannii ATCC 15151) was “Synergy”, the “Synergy with Polymyxin B (Polypeptides)” value (drug-resistant bacteria; CRE ATCC 1705) was “Synergy” and the “Synergy with Polymyxin E (Polypeptides)” value (drug-resistant bacteria; CRE ATCC 1705) was “Synergy”. For the same compound, the “Synergy with Polymyxin B (Polypeptides)” value (drug-resistant bacteria; CRE ATCC 2340) was “Synergy”, the “Synergy with Polymyxin E (Polypeptides)” value (drug-resistant bacteria; CRE ATCC 2340) was “Synergy” and the “Synergy with Polymyxin B (Polypeptides)” value (drug-resistant bacteria; CRE ATCC 2341) was “Synergy”. The “Synergy with Polymyxin E (Polypeptides)” value (drug-resistant bacteria; CRE ATCC 2341) was “Synergy”, the “Synergy with Polymyxin B (Polypeptides)” value (drug-resistant bacteria; CRE ATCC 2342) was “Synergy” and the “Synergy with Polymyxin E (Polypeptides)” value (drug-resistant bacteria; CRE ATCC 2342) was “Synergy”. For the same compound, the “Synergy with Norfioxacin (Fluoroquinolones)” value (drug-resistant bacteria; MRSA ATCC BAA-44) was “Synergy”, the “Synergy with Oxacillin (β-lactama)” value (drug-resistant bacteria; MRSA ATCC BAA-44, *indicated ampicillin, dicloxicillin and Penicillin G) was “Synergy*” and the “Synergy with Polymyxin B (Polypeptides)” value (drug-resistant bacteria; P. aeruginosa ATCC 27853) was “Synergy”. For the same compound, the “Synergy with Polymyxin E (Polypeptides)” value (drug-resistant bacteria; P. aeruginosa ATCC 27853) was “Synergy”, the “Synergy with Norfioxacin (Fluoroquinolones)” value (drug-resistant bacteria; VRE ATCC 51299) was “Synergy” and the “Synergy with Tetracycline (Tetracyclines)” value (drug-resistant bacteria; VRE ATCC 51299) was “Synergy”. For the same compound, the “Synergy with Vancomycin (Glycopeptides)” value (drug-resistant bacteria; VRE ATCC 51299) was “Synergy”, the MIC [2] was greater than 100 µM and the IC50 (WI38 cells) was 9.62 µM. The “Resistance Evolved” value (S. aureus (ATCC 29213)) was “Yes”, the MIC (S. aureus (ATCC 29213); Staphylococcus aureus, ATCC29213, read-out: Final MIC Apr. 16, 2015) was greater than 256 µM and the “Log Reduction” value (A. baumannii; PME (0.2 μg/mL)) was 8.

In the case of `Clc1ccc(/C=C/c2[nH]c3ccccc3c2/C=C/c2ccc(Cl)cc2)cc1` [Compound 1], the “Log Reduction” value (VRE) is reported as 8-9, the MIC (P. aeruginosa) is reported as greater than 100 µM and the “Synergy with Erythromycin (Macrolides)” value (drug-resistant bacteria; MRSA ATCC BAA-44) is reported as “Synergy (1)”. For the same compound, the “Synergy with Tetracycline (Tetracyclines)” value (drug-resistant bacteria; MRSA ATCC BAA-44, †includes doxycycline) was “Synergy† (1)”, the “Dark Toxicity” value ([3]; MRSA ATCC BAA-44, 0.1 μM) was 2.85 × 10^8 ± 8.05 × 10^7 CFU/mL and the “Light Toxicity” value ([3]; MRSA ATCC BAA-44, 0.1 μM) was 2.00 × 10^3 ± 4.00 × 10^2 CFU/mL. The “Dark Toxicity” value ([3]; MRSA ATCC BAA-44, 0.5 μM) was 2.93 × 10^8 ± 2.14 × 10^7 CFU/mL, the “Light Toxicity” value ([3]; MRSA ATCC BAA-44, 0.5 μM) was 3.33 × 10^1 ± 5.77 × 10^1 CFU/mL and the “Dark Toxicity” value ([3]; MRSA ATCC BAA-44, 1.0 μM) was 1.05 × 10^8 ± 9.07 × 10^6 CFU/mL. For the same compound, the “Light Toxicity” value ([3]; MRSA ATCC BAA-44, 1.0 μM) was “None detected (<100 CFU/mL)”, the “Dark Toxicity” value ([3]; MRSA ATCC BAA-44, 5.1 μM) was 4.34 × 10^5 ± 5.04 × 10^5 CFU/mL and the “Light Toxicity” value ([3]; MRSA ATCC BAA-44, 5.1 μM) was “None detected (<100 CFU/mL)”. For the same compound, the “Dark Toxicity” value ([3]; MRSA ATCC BAA-1717, 0.1 μM) was 5.10 × 10^7 ± 5.29 × 10^6 CFU/mL, the “Light Toxicity” value ([3]; MRSA ATCC BAA-1717, 0.1 μM) was 4.43 × 10^3 ± 1.33 × 10^3 CFU/mL and the “Dark Toxicity” value ([3]; MRSA ATCC BAA-1717, 0.5 μM) was 4.03 × 10^6 ± 1.5 × 10^6 CFU/mL. For the same compound, the “Light Toxicity” value ([3]; MRSA ATCC BAA-1717, 0.5 μM) was 4.0 × 10^2 ± 3.61 × 10^2 CFU/mL, the “Dark Toxicity” value ([3]; MRSA ATCC BAA-1717, 1.0 μM) was 1.06 × 10^6 ± 8.39 × 10^4 CFU/mL and the “Light Toxicity” value ([3]; MRSA ATCC BAA-1717, 1.0 μM) was “None detected (<100 CFU/mL)”. For the same compound, the “Dark Toxicity” value ([3]; MRSA ATCC BAA-1717, 5.1 μM) was 7.53 × 10^5 ± 1.12 × 10^5 CFU/mL, the “Light Toxicity” value ([3]; MRSA ATCC BAA-1717, 5.1 μM) was “None detected (<100 CFU/mL)” and the “log reduction in the concentration of CFUs” value ([3]; 1 μM) was 1 log. For the same compound, the “log reduction in the concentration of CFUs” value ([3]; 5 μM) was 3 log, the PDT ([3]; TABLE 6) was <1-log reduction and the “viable MRSA cells after photodynamic therapy” value ([3]; from 100,000,000 viable MRSA cells, 2 minutes of white light irradiation) was 0. For the same compound, the MIC [2] was greater than 100 µM, the “Log Reduction” value (A. baumannii; PMB (0.5 μg/mL)) was 8 and the “Log Reduction” value (A. baumannii; PME (0.2 μg/mL)) was 8.
